Results from patent publication US10550111B2, “Pyrimidine urea compound containing isoxazolines and use thereof” (SHENYANG SINOCHEM AGROCHEMICALS R&D CO., LTD, priority 2014, dated 2020).

Tests used:
Format in all cases: in vivo
[1] = test system: Echinochloa crus-galli (L.) Beauv.; test: Bioassay of herbicidal activity in greenhouse (further screening)
Procedure, shortened: (§1)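 Visual growth inhibition rating (0–100%; 100 = weeds dead or not emerged) after track-sprayer application of compounds formulated as emulsifiable concentrates. Sprays given 24 h post-sowing (pre-emergence) or at 2–3-leaf (grasses) / 2–4-leaf (broad-leaves) stage, greenhouse-grown plants.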

[2] = test system: Setaria glauca (L.) Beauv.; test: as above
Procedure, shortened: as §1

[3] = test system: Abutilon theophrasti Medic.; test: as above
Procedure, shortened: as §1

[4] = test system: Zinnia elegans Jacq.; test: as above
Procedure, shortened: as §1

[5] = test system: broad-leaf weeds and grass weeds; test: General screening of herbicidal activity in greenhouse; conditions: 1000 g a.i./hm^2;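 note: 0 means no visible effect and 100 means all weeds dead or not emerged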
Procedure, shortened: as §1

Row | Compound | Growth inhibition rate, Post-emergence treatment, Echinochloa crus-galli (L.) Beauv. ([1]; dose 600 g a.i./hm^2) [%] | Growth inhibition rate, Pre-emergence treatment, Echinochloa crus-galli (L.) Beauv. ([1]; dose 600 g a.i./hm^2) [%] | Growth inhibition rate, Post-emergence treatment, Setaria glauca (L.) Beauv. ([2]; dose 600 g a.i./hm^2) [%] | Growth inhibition rate, Pre-emergence treatment, Setaria glauca (L.) Beauv. ([2]; dose 600 g a.i./hm^2) [%] | Growth inhibition rate, Post-emergence treatment, Abutilon theophrasti Medic. ([3]; dose 600 g a.i./hm^2) [%] | Growth inhibition rate, Pre-emergence treatment, Abutilon theophrasti Medic. ([3]; dose 600 g a.i./hm^2) [%] | Growth inhibition rate, Post-emergence treatment, Zinnia elegans Jacq. ([4]; dose 600 g a.i./hm^2) [%] | Growth inhibition rate, Pre-emergence treatment, Zinnia elegans Jacq. ([4]; dose 600 g a.i./hm^2) [%] | pre-emergence and post-emergence herbicidal activity against broad-leaf weeds and grass weeds [5] | Growth inhibition rate, Post-emergence treatment, Echinochloa crus-galli (L.) Beauv. ([1]; dose 37.5 g a.i./hm^2) [%] | Growth inhibition rate, Post-emergence treatment, Echinochloa crus-galli (L.) Beauv. ([1]; dose 150 g a.i./hm^2) [%] | Growth inhibition rate, Pre-emergence treatment, Echinochloa crus-galli (L.) Beauv. ([1]; dose 37.5 g a.i./hm^2) [%] | Growth inhibition rate, Pre-emergence treatment, Echinochloa crus-galli (L.) Beauv. ([1]; dose 150 g a.i./hm^2) [%] | Growth inhibition rate, Post-emergence treatment, Setaria glauca (L.) Beauv. ([2]; dose 37.5 g a.i./hm^2) [%] | Growth inhibition rate, Post-emergence treatment, Setaria glauca (L.) Beauv. ([2]; dose 150 g a.i./hm^2) [%] | Growth inhibition rate, Pre-emergence treatment, Setaria glauca (L.) Beauv. ([2]; dose 37.5 g a.i./hm^2) [%] | Growth inhibition rate, Pre-emergence treatment, Setaria glauca (L.) Beauv. ([2]; dose 150 g a.i./hm^2) [%] | Growth inhibition rate, Post-emergence treatment, Abutilon theophrasti Medic. ([3]; dose 37.5 g a.i./hm^2) [%] | Growth inhibition rate, Post-emergence treatment, Abutilon theophrasti Medic. ([3]; dose 150 g a.i./hm^2) [%] | Growth inhibition rate, Pre-emergence treatment, Abutilon theophrasti Medic. ([3]; dose 37.5 g a.i./hm^2) [%] | also measured
1 | CC(=O)OCCOC(=O)C1(C)CC(c2cc(-n3c(=O)cc(C(F)(F)F)n(C)c3=O)c(F)cc2Cl)=NO1 (stereo not shown) [Compound 17] | 100 | 95 | 100 | 85 | 100 | 90 | 100 | 90 | good |  |  |  |  |  |  |  |  |  |  |  | Growth inhibition rate, Post-emergence treatment, Echinochloa crus-galli (L.) Beauv. ([1]; dose 7.5 g a.i./hm^2): 30%; Growth inhibition rate, Post-emergence treatment, Echinochloa crus-galli (L.) Beauv. ([1]; dose 15 g a.i./hm^2): 60%; Growth inhibition rate, Post-emergence treatment, Echinochloa crus-galli (L.) Beauv. ([1]; dose 30.0 g a.i./hm^2): 100%; Growth inhibition rate, Post-emergence treatment, Echinochloa crus-galli (L.) Beauv. ([1]; dose 60.0 g a.i./hm^2): 100%; Growth inhibition rate, Post-emergence treatment, Echinochloa crus-galli (L.) Beauv. ([1]; dose 120.0 g a.i./hm^2): 100%; Growth inhibition rate, Post-emergence treatment, Setaria glauca (L.) Beauv. ([2]; dose 7.5 g a.i./hm^2): 55%; Growth inhibition rate, Post-emergence treatment, Setaria glauca (L.) Beauv. ([2]; dose 15 g a.i./hm^2): 60%; Growth inhibition rate, Post-emergence treatment, Setaria glauca (L.) Beauv. ([2]; dose 30.0 g a.i./hm^2): 100%; Growth inhibition rate, Post-emergence treatment, Setaria glauca (L.) Beauv. ([2]; dose 60.0 g a.i./hm^2): 100%; Growth inhibition rate, Post-emergence treatment, Setaria glauca (L.) Beauv. ([2]; dose 120.0 g a.i./hm^2): 100%; Growth inhibition rate, Post-emergence treatment, Abutilon theophrasti Medic. ([3]; dose 7.5 g a.i./hm^2): 95%; Growth inhibition rate, Post-emergence treatment, Abutilon theophrasti Medic. ([3]; dose 15 g a.i./hm^2): 98%; Growth inhibition rate, Post-emergence treatment, Abutilon theophrasti Medic. ([3]; dose 30.0 g a.i./hm^2): 100%; Growth inhibition rate, Post-emergence treatment, Abutilon theophrasti Medic. ([3]; dose 60.0 g a.i./hm^2): 100%; Growth inhibition rate, Post-emergence treatment, Abutilon theophrasti Medic. ([3]; dose 120.0 g a.i./hm^2): 100%; Growth inhibition rate, Post-emergence treatment, Zinnia elegans Jacq. ([4]; dose 7.5 g a.i./hm^2): 45%; Growth inhibition rate, Post-emergence treatment, Zinnia elegans Jacq. ([4]; dose 15 g a.i./hm^2): 55%; Growth inhibition rate, Post-emergence treatment, Zinnia elegans Jacq. ([4]; dose 30.0 g a.i./hm^2): 65%; Growth inhibition rate, Post-emergence treatment, Zinnia elegans Jacq. ([4]; dose 60.0 g a.i./hm^2): 90%; Growth inhibition rate, Post-emergence treatment, Zinnia elegans Jacq. ([4]; dose 120.0 g a.i./hm^2): 100%
2 | Cn1c(C(F)(F)F)cc(=O)n(-c2cc(C3=NOC(C)(C(N)=O)C3)c(Cl)cc2F)c1=O (stereo not shown) [Compound 22] | 10 | 0 | 15 | 0 | 100 | 0 | 95 | 0 | good | 0 | 5 | 0 | 0 | 10 | 10 | 0 | 0 | 30 | 55 | 0 | Growth inhibition rate, Pre-emergence treatment, Abutilon theophrasti Medic. ([3]; dose 150 g a.i./hm^2): 0%; Growth inhibition rate, Post-emergence treatment, Zinnia elegans Jacq. ([4]; dose 37.5 g a.i./hm^2): 55%; Growth inhibition rate, Post-emergence treatment, Zinnia elegans Jacq. ([4]; dose 150 g a.i./hm^2): 90%; Growth inhibition rate, Pre-emergence treatment, Zinnia elegans Jacq. ([4]; dose 37.5 g a.i./hm^2): 0%; Growth inhibition rate, Pre-emergence treatment, Zinnia elegans Jacq. ([4]; dose 150 g a.i./hm^2): 0%
3 | Cn1c(C(F)(F)F)cc(=O)n(-c2cc(C3=NOC(C)(COC(=O)CCl)C3)c(Cl)cc2F)c1=O (stereo not shown) [Compound 50] | 80 | 80 | 98 | 90 | 100 | 100 | 100 | 90 | good | 10 | 30 | 0 | 10 | 15 | 65 | 0 | 30 | 100 | 100 | 0 | Growth inhibition rate, Pre-emergence treatment, Abutilon theophrasti Medic. ([3]; dose 150 g a.i./hm^2): 35%; Growth inhibition rate, Post-emergence treatment, Zinnia elegans Jacq. ([4]; dose 37.5 g a.i./hm^2): 98%; Growth inhibition rate, Post-emergence treatment, Zinnia elegans Jacq. ([4]; dose 150 g a.i./hm^2): 100%; Growth inhibition rate, Pre-emergence treatment, Zinnia elegans Jacq. ([4]; dose 37.5 g a.i./hm^2): 0%; Growth inhibition rate, Pre-emergence treatment, Zinnia elegans Jacq. ([4]; dose 150 g a.i./hm^2): 30%
